These results are taken from patent publication US20180049996A1, “THERAPEUTIC AGENT FOR CHRONIC RESPIRATORY DISEASE AND COMPOSITION FOR INHIBITING CARDIAC FIBROSIS” (NIPPON HYPOX LABORATORIES INCORPORATED, priority 2015, published 2018).

Test [1] deals with Lung Inflammation Induced by Tobacco Smoke. Kind of test: Histopathologic examination of lungs, COPD model. The conditions noted are these: HTHQ 10 and 20 mg/kg/day oral; tobacco smoke 10 days + LPS; compared to COPD model group. Type of test: in vivo, C57BL/6N mice. How it is done:
6 week old male SPF C57BL/6N mice, 20 to 25 g of body weight, were purchased from CORETEC INC. (South Korea).
The tests were conducted as follows. The mice in the COPD (chronic obstructive pulmonary disease) model group of the test groups were exposed to tobacco smoke for 1 hour per day (8 cigarettes/day) for 10 days and LPS (5 μg/50 μL/mouse) was intranasally administered to the mice on day 8 after the start of the tests. Roflumilast, the positive control substance, was orally administered to the mice in the positive control substance-administered group at 10 mg/kg body weight/day, and then they were exposed to tobacco smoke for 10 days starting from 1 hour after the administration of roflumilast, and LPS (5 μg/50 μL/mouse) was intranasally administered to the mice on day 8 after the start of the tests. Here, roflumilast is a selective phosphodiesterase 4 inhibitor and is a substance which is used as a therapeutic agent of COPD and asthma (approved in Europe and the United States, not approved in Japan). […] All the animals were euthanized on day 11 and bronchoalveolar lavage (BAL) examination and histopathologic examination of lungs were conducted. The mice in the normal control group and the test groups were fed sterile tap water and standard food for rodents during the test period. […]

A further test concerns IL-5. Kind of test: IL-5 level in BAL fluid (ELISA), ovalbumin asthma model. It counts as in vivo, BALB/c female mice. The conditions noted are these: HTHQ 20 and 40 mg/kg/day oral; compared to OVA group. How it is done: 6 week old BALB/c female mice were purchased and the mice were divided into 5 groups with 5 animals per group shown in Table 3 below after habituation breeding of about 2 weeks.
The test was conducted on the schedule of sensitization, causing diseases and administration of test materials shown in FIG. 12. “IP” in FIG. 12 refers to ovalbumin sensitization treatment by the intraperitoneal administration of ovalbumin/aluminum hydroxide, and “IH” refers to inhalation exposure treatment of ovalbumin, and “PO” refers to the administration of the test materials. […]
All mice were euthanized by intraperitoneal injection of pentobarbital (Hanrimu pharmaceutical, South Korea) at 50 mg/kg and the bronchi were excised on day 25 of the test. […] After preparing slide samples from 100 μL of BAL cell fluid using Cytospin (4° C., 1000 rpm×5 min), the cell numbers of inflammatory cells (eosinophils, macrophages, lymphocytes and neutrophils) present in the BAL fluid were counted using a Diff-Quik stain kit.
The supernatant of the BAL fluid stored was taken out of the super-cryostat and IL-4, IL-5 and IL-13 levels were measured as the pro-inflammatory cytokine contents in the supernatant of the BAL fluid. A quantitative ELISA kit (a product from R&D systems) and a microplate reader (a product from Bio-Rad Laboratories, Inc.) were used for the measurement and the measurement wavelength was 450 nm.

In the case of `CCCCCCOc1cc(C)c(O)c(C)c1C` [HTHQ, 2,3,5-trimethylhydroquinone-1-hexyl ether], the “infiltration of inflammatory cells in peribronchial lung tissue (HE stain)” value in test [1] was “significantly reduced in a dose-dependent manner”. Further, the “IL-5 content in BAL fluid” value in the test with IL-5 was “significantly reduced”.
